Laboratory results as given in patent EP1737880B1, “17ALPHA-FLUORO-17BETA-HYDROXI[…], A METHOD FOR PRODUCTION THEREOF AND PHARMACEUTICAL COMPOSITIONS COMPRISING SAID COMPOUNDS” (Bayer Schering Pharma Aktiengesellschaft, priority 2004, dated 2005).

Legend:
Progesteronrezeptor = target: T1, Progesteronrezeptor (Oryctolagus cuniculus, UniProt P06186); assay: Binding to the progesterone receptor (relative binding affinity, tracer 3H-ORG 2058); details: Uterus-Cytosol, Kaninchen, geprimt, 0-4°C, 18 h, Referenzsubstanz Progesteron = 100%
T1 construct: Uterus-Cytosol, Kaninchen, geprimt; from tissue; host or cells: uterus cytosol of primed rabbits
T1 sequence (P06186 1-930): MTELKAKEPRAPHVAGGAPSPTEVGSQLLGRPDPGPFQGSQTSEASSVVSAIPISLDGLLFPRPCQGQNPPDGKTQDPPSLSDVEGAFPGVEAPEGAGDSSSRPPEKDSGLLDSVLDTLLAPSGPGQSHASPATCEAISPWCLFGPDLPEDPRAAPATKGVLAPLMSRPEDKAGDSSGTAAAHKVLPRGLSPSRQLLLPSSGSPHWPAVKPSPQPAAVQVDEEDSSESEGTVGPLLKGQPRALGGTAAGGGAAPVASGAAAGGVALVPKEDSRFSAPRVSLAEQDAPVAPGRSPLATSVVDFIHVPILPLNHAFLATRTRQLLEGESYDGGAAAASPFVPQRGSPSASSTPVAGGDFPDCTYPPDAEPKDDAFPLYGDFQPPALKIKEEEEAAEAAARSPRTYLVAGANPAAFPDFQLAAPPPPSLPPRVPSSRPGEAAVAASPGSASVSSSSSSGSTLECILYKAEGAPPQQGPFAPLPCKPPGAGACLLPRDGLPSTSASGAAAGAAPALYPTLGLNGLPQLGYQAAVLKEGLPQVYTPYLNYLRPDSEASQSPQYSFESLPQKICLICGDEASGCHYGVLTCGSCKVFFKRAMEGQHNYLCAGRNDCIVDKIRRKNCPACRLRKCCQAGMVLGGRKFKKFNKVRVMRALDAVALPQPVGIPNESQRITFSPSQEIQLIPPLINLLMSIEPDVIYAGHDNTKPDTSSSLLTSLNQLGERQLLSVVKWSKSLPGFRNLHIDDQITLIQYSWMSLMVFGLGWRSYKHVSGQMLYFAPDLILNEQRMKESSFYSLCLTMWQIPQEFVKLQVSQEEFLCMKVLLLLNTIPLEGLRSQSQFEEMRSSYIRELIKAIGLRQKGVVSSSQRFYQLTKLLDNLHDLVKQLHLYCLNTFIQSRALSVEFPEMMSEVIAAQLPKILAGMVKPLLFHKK
Excerpt: Bindung der Verbindung I an den Progesteronrezeptor

PR-B = target: T2, PR-B (Homo sapiens, UniProt P06401); assay: PR-B antagonism and agonism; type: cell-based
T2 sequence (P06401 1-933): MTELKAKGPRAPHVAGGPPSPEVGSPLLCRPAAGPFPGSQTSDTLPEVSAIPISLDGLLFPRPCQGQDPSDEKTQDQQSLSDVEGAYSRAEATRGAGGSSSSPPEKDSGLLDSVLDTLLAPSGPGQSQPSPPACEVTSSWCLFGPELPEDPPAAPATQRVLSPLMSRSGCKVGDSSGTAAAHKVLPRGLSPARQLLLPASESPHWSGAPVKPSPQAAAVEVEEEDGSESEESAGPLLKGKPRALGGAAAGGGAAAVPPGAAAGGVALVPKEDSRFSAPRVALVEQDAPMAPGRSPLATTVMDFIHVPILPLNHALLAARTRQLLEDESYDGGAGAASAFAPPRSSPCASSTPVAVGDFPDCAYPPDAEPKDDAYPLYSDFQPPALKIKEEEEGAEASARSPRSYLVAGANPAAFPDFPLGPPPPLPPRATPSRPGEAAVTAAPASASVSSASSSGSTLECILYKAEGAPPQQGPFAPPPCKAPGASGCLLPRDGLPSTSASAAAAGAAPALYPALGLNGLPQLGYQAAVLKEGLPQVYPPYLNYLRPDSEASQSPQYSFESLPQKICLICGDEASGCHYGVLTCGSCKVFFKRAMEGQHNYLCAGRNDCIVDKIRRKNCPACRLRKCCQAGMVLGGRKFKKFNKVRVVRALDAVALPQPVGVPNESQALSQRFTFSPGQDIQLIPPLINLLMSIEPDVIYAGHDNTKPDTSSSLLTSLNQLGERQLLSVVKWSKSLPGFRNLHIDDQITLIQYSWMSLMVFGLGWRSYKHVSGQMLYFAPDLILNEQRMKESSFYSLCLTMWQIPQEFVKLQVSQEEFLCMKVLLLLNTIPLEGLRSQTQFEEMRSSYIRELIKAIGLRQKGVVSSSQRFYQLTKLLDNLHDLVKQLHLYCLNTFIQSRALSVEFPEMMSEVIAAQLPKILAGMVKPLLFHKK
Excerpt: PR-B Antagonismus und Agonismus

Maus = assay: Gestagenic activity in the pregnancy maintenance test, mouse; type: in vivo
5α-Reduktase-Typ2 = target: T3, 5α-Reduktase-Typ2 (Homo sapiens, UniProt P31213); assay: 5α-reductase type 2 activity in genital skin homogenates; type: biochemical; details: Genitalhaut-Homogenate, optimised conditions, pH 5.5
T3 construct: In Genitalhaut-Homogenaten unter optimierten Bedingungen bei pH 5.5; from tissue; host or cells: genital skin homogenate
T3 sequence (P31213 1-254): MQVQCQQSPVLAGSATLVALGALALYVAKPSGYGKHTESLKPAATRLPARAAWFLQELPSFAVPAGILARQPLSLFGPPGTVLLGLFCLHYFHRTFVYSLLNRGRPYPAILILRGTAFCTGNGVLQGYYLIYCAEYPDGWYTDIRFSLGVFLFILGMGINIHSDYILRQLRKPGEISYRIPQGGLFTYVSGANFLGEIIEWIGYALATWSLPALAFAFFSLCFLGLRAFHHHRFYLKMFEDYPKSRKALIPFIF
Excerpt: Nachfolgend sind beispielhafte Daten zur Progesteronrezeptorbindung, 5α-Reduktase-Typ2-Aktivität in Genitalhaut-Homogenaten und in vivo- Daten am Beispiel von (E)-17α-Fluor-3-oxo-estr-4-en-17β-carbaldehyd oxim aufgeführt

C[C@]12CC[C@H]3[C@@H](CCC4=CC(=O)CC[C@@H]43)[C@@H]1CC[C@]2(F)/C=N/O [Verbindung 7, (E)-17α-Fluor-3-oxo-estr-4-en-17β-carbaldehyd oxim]
Relative Bindungsaffinität RBA[%] (Progesteronrezeptor): 131 ± 9%
EC50 (PR-B; agonist mode, read-out: Agonismus IC50): 250 pM
IC50 (PR-B; antagonist mode, read-out: Antagonismus IC50): 339 pM
Rate der erhaltenen Graviditäten (Maus; Dosis 0,03 mg/Tier/Tag): 2/2
Rate der erhaltenen Graviditäten (Maus; Dosis 0,3 mg/Tier/Tag): 3/3
Rate der erhaltenen Graviditäten (Maus; Dosis 0,003 mg/Tier/Tag): 0/3
IC50 (5α-Reduktase-Typ2): 245000 pM
